Assay results: US9624166B2, “Tetracycline compounds” (Tetraphase Pharmaceuticals, Inc., priority 2009, dated 2017)

How the values were obtained:
[1] = system: A. baumanii ATCC 19606 (AB110, wt); experiment: MIC assay, AB110; assay type: cell-based; settings: numeric MIC of control compounds
Procedure: (§1) Minimum Inhibitory Concentration (MIC) Assay
(§2) MICs were determined according to the Clinical and Laboratory Standards Institute (CLSI) guidances (e.g., CLSI. Performance standards for antimicrobial susceptibility testing; nineteenth information supplement. CLSI document M100-S19, CLSI, 940 West Valley Road, Suite 1400, Wayne, Pa. 19087-1898, USA, 2009). Briefly, frozen bacterial strains were thawed and subcultured onto Mueller Hinton Broth (MHB) or other appropriate media (Streptococcus requires blood and Haemophilus requires hemin and NAD). Following incubation overnight, the strains were subcultured onto Mueller Hinton Agar and again incubated overnight. […] Isolated colonies were selected to prepare a starting inoculum equivalent to a 0.5 McFarland standard. The starting inoculum was diluted 1:125 using MHB for further use. Test compounds were prepared by dilution in sterile water to a final concentration of 5.128 mg/mL. Antibiotics (stored frozen, thawed and used within 3 hours of thawing) and compounds were further diluted to the desired working concentrations.
(§3) The assays were run as follows. Fifty μL of MHB was added to wells 2-12 of a 96-well plate. One hundred μL of appropriately diluted antibiotics was added to well 1. Fifty μL of antibiotics was removed from well 1 and added to well 2 and the contents of well 2 mixed by pipetting up and down five times. Fifty μL of the mixture in well 2 was removed and added to well 3 and mixed as above. Serial dilutions were continued in the same manner through well 12. Fifty μL was removed from well 12 so that all contained 50 μL. Fifty μL of the working inoculum was then added to all test wells. A growth control well was prepared by adding 50 μL of working inoculum and 50 μL of MHB to an empty well. The plates were then incubated at 37° C. overnight, removed from the incubator and each well was read on a plate reading mirror. The lowest concentration (MIC) of test compound that inhibited the growth of the bacteria was recorded.
(§4) Fifteen bacterial strains, listed below, were examined in minimum inhibitory concentration (MIC) assays.

[2] = system: K. pneumoniae ATCC 13883 (KP109, wt); experiment: MIC assay, KP109; assay type: cell-based; settings: numeric MIC of control compounds
Procedure: as §1, §2, §3, §4

[3] = system: P. aeruginosa ATCC 27853 (PA111, wt, control); experiment: MIC assay, PA111; assay type: cell-based; settings: numeric MIC of control compounds
Procedure: as §1, §2, §3, §4

[4] = system: E. coli ATCC 25922 (EC107, wt, control); experiment: MIC assay, EC107; assay type: cell-based; settings: numeric MIC of control compounds
Procedure: as §1, §2, §3, §4

[5] = system: S. aureus ATCC 13709 (Smith); experiment: Murine systemic infection (septicemia) model with intraperitoneal challenge of S. aureus; assay type: in vivo; settings: CD-1 female mice, i.v. one hour post-challenge, SA Smith septicemia, survival after 48 hours, Probit analysis
Procedure: Murine Systemic Infection Model with Intraperitoneal Challenge of S. aureus
In the model, CD-1 female mice (18-20 grams) were injected intraperitoneally with S. aureus ATCC 13709 (Smith) (1-2×10^6/mouse) mixed with 5% hog gastric mucin, a bacterial inoculum previously established through virulence studies required to achieve 90-100% lethality within 24-48 hours. Typically, six mice were treated intravenously per dose group one hour post-challenge with either compound 101, compound 105, compound 145, compound 153, compound 166, and compound 218, tetracycline or tigecycline at doses ranging from 0.05-10 mg/kg. After 48 hours, percent survival was calculated and the dose (mg/kg) effecting 50% survival, the protective dose 50% (PD50), was reported along as calculated by Probit analysis.
The PD50 values of compound 101, compound 105, compound 145, compound 153, compound 166, and compound 218 and comparators tigecycline and tetracycline in the S. aureus ATCC 13709 mouse septicemia model are described in Table 6.

[6] = system: E. cloacae ATCC 13047 (EC108, wt); experiment: MIC assay, EC108; assay type: cell-based; settings: numeric MIC of control compounds
Procedure: as §1, §2, §3, §4

Row | Structure (SMILES) | MIC AB110 [1] | MIC KP109 [2] | MIC PA111 [3] | MIC EC107 [4] | PD50 (protective dose 50%, dose effecting 50% survival) [5] | MIC EC108 [6]
1 | CN(C)c1cc(NC(=O)CNC(C)(C)C)c(O)c2c1C[C@H]1C[C@H]3[C@H](N(C)C)C(O)=C(C(N)=O)C(=O)[C@@]3(O)C(O)=C1C2=O [Tigecycline, tigecycline] | 0.25 µg/mL | 0.125 µg/mL | 8 µg/mL | 0.03 µg/mL | 0.97 mg/kg | 0.25 µg/mL
2 | CN(C)[C@@H]1C(O)=C(C(N)=O)C(=O)[C@@]2(O)C(O)=C3C(=O)c4c(O)cccc4C[C@H]3C[C@@H]12 [Sancycline] | 0.25 µg/mL | 8 µg/mL | > 32 µg/mL | 8 µg/mL |  | 8 µg/mL
3 | CN(C)c1ccc(O)c2c1C[C@H]1C[C@H]3[C@H](N(C)C)C(O)=C(C(N)=O)C(=O)[C@@]3(O)C(O)=C1C2=O [Minocycline] | 0.06 µg/mL | 1 µg/mL | 16 µg/mL | 0.5 µg/mL |  | 2 µg/mL
4 | COc1cc(NS(=O)(=O)CC(C)C)c(O)c2c1C[C@H]1C[C@H]3[C@H](N(C)C)C(O)=C(C(N)=O)C(=O)[C@@]3(O)C(O)=C1C2=O [Compound 166] |  |  |  |  | 4.3 mg/kg | 
5 | COc1cc(NC(=O)CN2CCCC2)c(O)c2c1C[C@H]1C[C@H]3[C@H](N(C)C)C(O)=C(C(N)=O)C(=O)[C@@]3(O)C(O)=C1C2=O [Compound 101] |  |  |  |  | 0.36 mg/kg | 
6 | CN(C)[C@@H]1C(O)=C(C(N)=O)C(=O)[C@@]2(O)C(O)=C3C(=O)c4c(O)cccc4[C@@](C)(O)[C@H]3C[C@@H]12 [Tetracycline, tetracycline] |  |  |  |  | 1.0 mg/kg | 
7 | COc1cc(NS(=O)(=O)c2ccccc2)c(O)c2c1C[C@H]1C[C@H]3[C@H](N(C)C)C(O)=C(C(N)=O)C(=O)[C@@]3(O)C(O)=C1C2=O [Compound 153] |  |  |  |  | >10 mg/kg | 
8 | CCN(C)CC(=O)Nc1cc(OC(F)(F)F)c2c(c1O)C(=O)C1=C(O)[C@]3(O)C(=O)C(C(N)=O)=C(O)[C@@H](N(C)C)[C@@H]3C[C@@H]1C2 [Compound 218] |  |  |  |  | 1.4 mg/kg | 
9 | COc1cc(NC(=O)CN(C)C)c(O)c2c1C[C@H]1C[C@H]3[C@H](N(C)C)C(O)=C(C(N)=O)C(=O)[C@@]3(O)C(O)=C1C2=O [Compound 105] |  |  |  |  | 0.25 mg/kg | 
